Test results as given in publication PMC7932537, “Quantitative profiling of protease specificity” (PLoS Computational Biology, 2021).

Experiments:
[1] = tested on: MMP-2; experiment: Substrate phage display with NGS: relative probability (RP) of P3-P1' tetramer clusters; assay type: biochemical, human; conditions: MMP2;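 further: ratio of tetramer probability after protease selection to that in naive phage library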
[2] = biological target: T1, MMP-2 (Homo sapiens, UniProt P08253); experiment: K(obs) of individual phage substrates (set of 1369); assay type: biochemical; conditions: MMP2
T1 sequence (P08253 110-660): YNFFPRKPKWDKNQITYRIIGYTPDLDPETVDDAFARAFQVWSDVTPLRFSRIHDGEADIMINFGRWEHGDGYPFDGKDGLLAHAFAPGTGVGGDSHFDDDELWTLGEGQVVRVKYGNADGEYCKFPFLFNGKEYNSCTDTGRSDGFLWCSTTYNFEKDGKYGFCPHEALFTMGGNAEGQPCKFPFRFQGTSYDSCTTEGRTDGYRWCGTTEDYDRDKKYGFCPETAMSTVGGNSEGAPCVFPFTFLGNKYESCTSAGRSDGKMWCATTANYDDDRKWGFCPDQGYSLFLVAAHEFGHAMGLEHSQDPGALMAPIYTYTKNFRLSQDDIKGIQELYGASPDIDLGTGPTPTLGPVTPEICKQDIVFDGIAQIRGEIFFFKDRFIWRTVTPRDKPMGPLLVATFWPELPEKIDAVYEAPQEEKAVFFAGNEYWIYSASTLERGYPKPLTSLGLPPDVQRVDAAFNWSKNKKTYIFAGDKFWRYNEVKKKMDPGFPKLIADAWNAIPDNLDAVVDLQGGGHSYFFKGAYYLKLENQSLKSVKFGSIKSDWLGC

[3] = biological target: MMP-9 (Homo sapiens, UniProt P14780); experiment: as above; assay type: biochemical; conditions: MMP9
[4] = RP of the P3-P1' tetramer contained in the substrate (substrate phage display with NGS)
[5] = individual phage substrates, set of 1369 peptides, cleavage position marked by hyphen in sequence
[6] = individual phage substrates, set of 1369 peptides, hyphen in sequence marks cleavage position
[7] = RP of the P3-P1' tetramer contained in the substrate
[8] = individual phage substrate of the set of 1369 peptides, cleavage position marked by '-'
[9] = individual phage substrate of the set of 1369 peptides, dash in the sequence marks the cleavage position

Chain of MMP-9 (P14780 94-707): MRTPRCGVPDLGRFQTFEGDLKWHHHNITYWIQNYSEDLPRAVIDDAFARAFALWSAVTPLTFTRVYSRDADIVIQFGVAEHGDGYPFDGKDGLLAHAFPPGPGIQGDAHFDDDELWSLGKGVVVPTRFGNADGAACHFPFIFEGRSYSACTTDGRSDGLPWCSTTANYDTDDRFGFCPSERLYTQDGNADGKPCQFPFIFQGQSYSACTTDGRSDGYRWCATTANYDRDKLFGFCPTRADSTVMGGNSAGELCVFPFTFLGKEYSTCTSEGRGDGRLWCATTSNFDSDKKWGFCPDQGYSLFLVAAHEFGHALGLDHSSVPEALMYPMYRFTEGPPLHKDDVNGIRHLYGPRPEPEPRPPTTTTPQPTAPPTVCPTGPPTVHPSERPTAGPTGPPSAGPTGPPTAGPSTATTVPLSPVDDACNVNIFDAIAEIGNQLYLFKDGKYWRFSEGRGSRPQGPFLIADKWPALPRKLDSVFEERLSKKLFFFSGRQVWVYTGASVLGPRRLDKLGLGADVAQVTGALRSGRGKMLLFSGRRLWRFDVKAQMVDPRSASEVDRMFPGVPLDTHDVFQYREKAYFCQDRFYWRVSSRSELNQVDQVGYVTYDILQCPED

Row | Substance | relative probability (RP) [1, 4] | Kobs [2, 5] [M⁻¹ s⁻¹] | Kobs [3, 6] [M⁻¹ s⁻¹] | relative probability (RP) [1, 7] | Kobs [2, 8] [M⁻¹ s⁻¹] | Kobs [3, 9] [M⁻¹ s⁻¹]
1 | RAPSM-LTASG | 33.0235 | 5889.62 | 7815.03 | – | – | –
2 | RDLSH-LTASG | 29.8814 | 9740.44 | 261.974 | – | – | –
3 | RDVLA-LTASG | 13.5229 | 3438.54 | 3165.09 | – | – | –
4 | REPLT-LTASG | – | – | – | 24.2603 | 12792.1 | 12792.1
5 | RFALN-LTASG | 17.2813 | 7015.91 | 9740.44 | – | – | –
6 | RFPRP-ITASG | – | – | – | 33.2176 | 12792.1 | 12792.1
7 | RGPYH-LTASG | 27.2418 | 12792.1 | 12792.1 | – | – | –
8 | RGPYM-LTASG | 24.9477 | 6688.74 | 12792.1 | – | – | –
9 | RILGY-LTASG | 24.8925 | 12792.1 | 292.668 | – | – | –
10 | RIPAS-LTASG | – | – | – | 36.4285 | 12792.1 | 12792.1
11 | RIPRF-LTASG | – | – | – | 28.4443 | 12792.1 | 12792.1
12 | RKPAP-WTASG | – | – | – | 31.7353 | 8321.48 | 3253.29
13 | RKVRN-WTASG | 17.7682 | 0 | 201.585 | – | – | –
14 | RLANA-LTASG | – | – | – | 20.3526 | 3741.87 | 619.843
15 | RLANN-LTASG | – | – | – | 18.8719 | 5461.43 | 484.315
16 | RLLLN-MTASG | 13.7728 | 2916.17 | 1112.44 | – | – | –
17 | RLPVA-ITASG | – | – | – | 32.4892 | 12792.1 | 12792.1
18 | RLPVH-YTASG | – | – | – | 23.3589 | 7815.03 | 12792.1

Row | Substance | relative probability (RP) [1, 4] | Kobs [2, 5] [M⁻¹ s⁻¹] | Kobs [3, 6] [M⁻¹ s⁻¹] | relative probability (RP) [1, 7] | Kobs [2, 8] [M⁻¹ s⁻¹] | Kobs [3, 9] [M⁻¹ s⁻¹]
19 | RLPWS-LTASG | – | – | – | 28.5684 | 5667.28 | 12792.1
20 | RLYMN-ITASG | 0 | 0 | 0 | – | – | –
21 | RMLAQ-LTASG | 25.841 | 12792.1 | 113.394 | – | – | –
22 | RNGLA-LTASG | 0.6848 | 0 | 0 | – | – | –
23 | RNPEW-MTASG | 12.3271 | 2996.69 | 4763.33 | – | – | –
24 | RPPLA-FTASG | – | – | – | 31.4142 | 7386.83 | 12792.1
25 | RPPSS-LTASG | 35.4913 | 10866.7 | 9740.44 | – | – | –
26 | RQLAA-ITASG | – | – | – | 28.8382 | 4205.91 | 355.093
27 | RQLAH-ITASG | 25.9365 | 10866.7 | 27.918 | – | – | –
28 | RQVRY-LTASG | 18.3724 | 8321.48 | 7015.91 | – | – | –
29 | RQWRA-LTASG | – | – | – | 22.4074 | 5889.62 | 4470.66
30 | RQWYG-ITASG | – | – | – | 0.0533 | 142.481 | 4922.1
31 | RRPTN-LTASG | – | – | – | 31.0288 | 12792.1 | 12792.1
32 | RRVLM-MTASG | 2.736 | 171.876 | 1660.66 | – | – | –
33 | RSHAS-LTASG | 26.2573 | 12792.1 | 0 | – | – | –
34 | RTAHN-LTASG | – | – | – | 23.7113 | 12792.1 | 5667.28
35 | RTASH-LTASG | – | – | – | 19.8208 | 8321.48 | 84.609
